Test results reported in paper PMC4979471 (Cell Death Discovery, 2015).
Like-named read-outs stand apart in the source and are kept apart here.

How the values were obtained:
Test in all cases: Kinase selectivity, P33-radiolabeled assay
Format in all cases: biochemical
Conditions in all cases: 10 μM ATP
TXK = target: T1, TXK (Homo sapiens, UniProt P42681)
T1 construct: purchased Reaction Biology Corp
T1 sequence (P42681 1-527): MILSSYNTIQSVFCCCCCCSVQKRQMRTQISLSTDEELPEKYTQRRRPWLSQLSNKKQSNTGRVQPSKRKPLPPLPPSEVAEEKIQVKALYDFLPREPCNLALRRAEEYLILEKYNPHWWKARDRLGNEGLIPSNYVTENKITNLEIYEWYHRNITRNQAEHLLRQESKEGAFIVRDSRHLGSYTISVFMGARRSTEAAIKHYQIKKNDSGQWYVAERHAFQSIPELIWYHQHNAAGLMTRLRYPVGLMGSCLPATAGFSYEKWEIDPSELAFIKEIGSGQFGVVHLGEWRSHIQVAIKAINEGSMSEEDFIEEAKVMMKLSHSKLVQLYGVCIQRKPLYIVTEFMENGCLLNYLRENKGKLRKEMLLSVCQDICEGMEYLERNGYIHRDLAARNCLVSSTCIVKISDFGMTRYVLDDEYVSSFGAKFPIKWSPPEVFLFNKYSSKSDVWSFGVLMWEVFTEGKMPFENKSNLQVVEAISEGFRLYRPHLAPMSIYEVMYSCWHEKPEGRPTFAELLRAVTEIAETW
How it was run: (§1)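 Percent residual kinase activity versus DMSO is reported. Conditions: compound at 10 μM, ATP at 10 μM, n = 2.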

CAMK4 = target: T2, CAMK4 (Homo sapiens, UniProt Q16566)
T2 construct: purchased Reaction Biology Corp
T2 sequence (Q16566 1-473): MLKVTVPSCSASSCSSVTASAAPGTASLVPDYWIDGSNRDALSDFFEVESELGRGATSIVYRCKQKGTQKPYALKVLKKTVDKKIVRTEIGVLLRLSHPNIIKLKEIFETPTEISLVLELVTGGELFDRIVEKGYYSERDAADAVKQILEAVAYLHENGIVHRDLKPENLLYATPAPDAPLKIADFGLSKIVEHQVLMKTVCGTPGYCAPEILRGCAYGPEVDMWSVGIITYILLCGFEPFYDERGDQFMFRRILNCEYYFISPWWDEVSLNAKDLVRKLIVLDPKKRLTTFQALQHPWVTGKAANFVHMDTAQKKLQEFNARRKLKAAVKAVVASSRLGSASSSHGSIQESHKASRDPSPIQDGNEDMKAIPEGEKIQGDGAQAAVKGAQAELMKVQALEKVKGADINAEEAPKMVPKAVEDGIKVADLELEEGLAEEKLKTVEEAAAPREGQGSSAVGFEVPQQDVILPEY
How it was run: as §1

COT1/MAP3K8 = target: T3, COT1/MAP3K8 (Homo sapiens, UniProt P41279)
T3 construct: purchased Reaction Biology Corp
T3 sequence (P41279 whole entry): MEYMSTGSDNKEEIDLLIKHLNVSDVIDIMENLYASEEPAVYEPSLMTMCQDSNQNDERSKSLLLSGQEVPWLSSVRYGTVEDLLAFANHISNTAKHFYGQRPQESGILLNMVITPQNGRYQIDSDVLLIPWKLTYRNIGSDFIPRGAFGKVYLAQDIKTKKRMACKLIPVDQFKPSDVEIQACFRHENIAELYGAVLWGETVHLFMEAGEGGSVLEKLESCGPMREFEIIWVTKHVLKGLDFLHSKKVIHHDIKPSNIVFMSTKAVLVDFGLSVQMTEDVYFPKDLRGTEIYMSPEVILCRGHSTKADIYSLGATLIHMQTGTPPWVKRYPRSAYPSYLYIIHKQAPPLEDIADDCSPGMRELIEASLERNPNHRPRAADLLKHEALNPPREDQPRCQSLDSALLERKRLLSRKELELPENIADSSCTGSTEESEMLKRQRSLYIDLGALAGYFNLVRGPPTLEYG
How it was run: as §1

MKK4 = target: T4, MKK4 (Homo sapiens, UniProt P45985)
T4 construct: purchased Reaction Biology Corp
T4 sequence (P45985 1-399): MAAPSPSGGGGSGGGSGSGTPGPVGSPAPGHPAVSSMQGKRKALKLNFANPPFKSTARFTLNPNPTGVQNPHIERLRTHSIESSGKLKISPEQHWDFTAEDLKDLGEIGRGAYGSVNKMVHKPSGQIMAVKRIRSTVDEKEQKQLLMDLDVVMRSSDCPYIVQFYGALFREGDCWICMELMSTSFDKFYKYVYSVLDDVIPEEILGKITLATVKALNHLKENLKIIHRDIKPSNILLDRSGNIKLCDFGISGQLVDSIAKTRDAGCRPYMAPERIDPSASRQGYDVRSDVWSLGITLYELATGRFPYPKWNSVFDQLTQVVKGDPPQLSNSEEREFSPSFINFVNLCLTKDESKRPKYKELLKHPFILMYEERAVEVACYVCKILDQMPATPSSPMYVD
How it was run: as §1

LOK/STK10 = target: T5, LOK/STK10 (Homo sapiens, UniProt O94804)
T5 construct: purchased Reaction Biology Corp
T5 sequence (O94804 whole entry): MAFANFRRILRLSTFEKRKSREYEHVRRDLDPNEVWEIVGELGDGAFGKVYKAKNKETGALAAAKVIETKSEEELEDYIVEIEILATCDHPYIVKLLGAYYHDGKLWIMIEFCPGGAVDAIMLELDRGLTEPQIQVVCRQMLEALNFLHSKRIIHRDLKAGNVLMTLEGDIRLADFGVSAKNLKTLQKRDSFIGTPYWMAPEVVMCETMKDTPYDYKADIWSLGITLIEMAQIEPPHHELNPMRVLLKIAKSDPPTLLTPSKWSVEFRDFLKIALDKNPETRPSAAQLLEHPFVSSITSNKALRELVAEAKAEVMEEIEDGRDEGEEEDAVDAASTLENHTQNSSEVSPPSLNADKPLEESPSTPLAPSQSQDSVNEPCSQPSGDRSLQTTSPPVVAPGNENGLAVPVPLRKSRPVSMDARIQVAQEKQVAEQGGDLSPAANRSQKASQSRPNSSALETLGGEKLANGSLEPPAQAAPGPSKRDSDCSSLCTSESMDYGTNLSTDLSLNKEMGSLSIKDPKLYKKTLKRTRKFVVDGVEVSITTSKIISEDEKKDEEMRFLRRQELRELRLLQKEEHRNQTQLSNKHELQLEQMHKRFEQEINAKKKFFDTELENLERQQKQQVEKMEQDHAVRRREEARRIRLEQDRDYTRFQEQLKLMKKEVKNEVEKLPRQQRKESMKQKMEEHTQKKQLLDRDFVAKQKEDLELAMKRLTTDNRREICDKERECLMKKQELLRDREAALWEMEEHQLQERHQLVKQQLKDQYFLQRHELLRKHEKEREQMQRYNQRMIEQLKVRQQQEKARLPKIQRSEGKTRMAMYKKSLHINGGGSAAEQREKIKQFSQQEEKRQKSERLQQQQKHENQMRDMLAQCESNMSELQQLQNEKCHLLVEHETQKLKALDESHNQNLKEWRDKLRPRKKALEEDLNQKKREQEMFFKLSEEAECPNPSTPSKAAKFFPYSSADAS
How it was run: as §1

ERK5/MAPK7 = target: T6, ERK5/MAPK7 (Homo sapiens, UniProt Q13164)
T6 construct: purchased Reaction Biology Corp
T6 sequence (Q13164 whole entry): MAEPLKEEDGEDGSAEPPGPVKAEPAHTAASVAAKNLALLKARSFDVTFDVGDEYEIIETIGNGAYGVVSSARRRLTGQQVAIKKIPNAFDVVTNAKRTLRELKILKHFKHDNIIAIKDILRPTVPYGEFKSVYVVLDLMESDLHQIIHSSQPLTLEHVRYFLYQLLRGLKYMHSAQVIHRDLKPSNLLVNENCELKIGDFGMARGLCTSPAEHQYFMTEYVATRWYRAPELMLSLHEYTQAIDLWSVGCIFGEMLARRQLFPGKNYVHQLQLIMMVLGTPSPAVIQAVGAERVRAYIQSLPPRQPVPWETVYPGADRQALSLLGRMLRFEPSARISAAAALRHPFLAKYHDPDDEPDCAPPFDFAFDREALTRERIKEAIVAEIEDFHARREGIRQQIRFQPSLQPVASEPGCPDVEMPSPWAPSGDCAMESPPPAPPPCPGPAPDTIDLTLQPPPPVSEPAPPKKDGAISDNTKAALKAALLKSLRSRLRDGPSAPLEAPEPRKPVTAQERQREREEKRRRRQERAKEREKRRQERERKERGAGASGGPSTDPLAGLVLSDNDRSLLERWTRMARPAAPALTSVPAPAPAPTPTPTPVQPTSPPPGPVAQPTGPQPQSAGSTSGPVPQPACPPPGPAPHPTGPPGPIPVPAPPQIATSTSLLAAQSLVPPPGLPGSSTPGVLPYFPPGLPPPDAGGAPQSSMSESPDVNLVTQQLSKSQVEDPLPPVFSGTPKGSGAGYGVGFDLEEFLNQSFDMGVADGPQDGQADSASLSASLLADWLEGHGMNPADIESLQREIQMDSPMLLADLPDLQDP
How it was run: as §1

TRKC = target: T7, TRKC (Homo sapiens, UniProt Q16288)
T7 construct: purchased Reaction Biology Corp
T7 sequence (Q16288 32-839): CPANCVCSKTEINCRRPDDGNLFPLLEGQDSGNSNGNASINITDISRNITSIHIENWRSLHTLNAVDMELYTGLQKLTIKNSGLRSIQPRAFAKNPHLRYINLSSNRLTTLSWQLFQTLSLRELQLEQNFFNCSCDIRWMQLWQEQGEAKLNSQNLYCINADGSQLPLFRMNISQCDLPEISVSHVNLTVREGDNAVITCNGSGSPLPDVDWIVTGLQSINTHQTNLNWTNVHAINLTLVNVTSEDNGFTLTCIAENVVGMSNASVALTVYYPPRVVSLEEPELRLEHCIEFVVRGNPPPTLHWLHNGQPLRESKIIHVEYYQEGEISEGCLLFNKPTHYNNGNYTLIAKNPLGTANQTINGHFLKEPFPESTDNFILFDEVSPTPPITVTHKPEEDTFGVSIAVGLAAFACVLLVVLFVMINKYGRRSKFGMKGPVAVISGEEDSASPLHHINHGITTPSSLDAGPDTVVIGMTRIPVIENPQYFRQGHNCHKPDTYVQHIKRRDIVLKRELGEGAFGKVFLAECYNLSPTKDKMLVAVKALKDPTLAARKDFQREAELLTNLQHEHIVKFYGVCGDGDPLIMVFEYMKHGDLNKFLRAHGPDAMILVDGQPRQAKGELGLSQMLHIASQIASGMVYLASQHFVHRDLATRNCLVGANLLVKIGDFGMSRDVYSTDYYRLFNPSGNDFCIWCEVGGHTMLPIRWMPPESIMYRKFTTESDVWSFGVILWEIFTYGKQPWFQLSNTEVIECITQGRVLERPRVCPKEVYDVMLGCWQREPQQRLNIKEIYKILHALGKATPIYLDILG
How it was run: as §1

STK32B/YANK2 = target: T8, STK32B/YANK2 (Homo sapiens, UniProt Q9NY57)
T8 construct: purchased Reaction Biology Corp
T8 sequence (Q9NY57 whole entry): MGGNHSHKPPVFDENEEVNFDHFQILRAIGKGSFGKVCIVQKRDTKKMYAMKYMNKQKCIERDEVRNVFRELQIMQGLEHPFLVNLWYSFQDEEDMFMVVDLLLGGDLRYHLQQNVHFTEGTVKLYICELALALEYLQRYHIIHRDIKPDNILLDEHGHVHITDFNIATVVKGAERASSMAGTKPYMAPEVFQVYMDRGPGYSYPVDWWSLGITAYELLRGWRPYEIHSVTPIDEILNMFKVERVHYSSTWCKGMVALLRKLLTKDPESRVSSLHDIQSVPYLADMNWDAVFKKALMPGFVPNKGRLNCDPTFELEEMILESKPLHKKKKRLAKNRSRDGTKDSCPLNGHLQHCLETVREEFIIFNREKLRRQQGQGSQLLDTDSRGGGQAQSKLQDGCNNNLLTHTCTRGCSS
How it was run: as §1

STK38/NDR1 = target: T9, STK38/NDR1 (Homo sapiens, UniProt Q15208)
T9 construct: purchased Reaction Biology Corp
T9 sequence (Q15208 whole entry): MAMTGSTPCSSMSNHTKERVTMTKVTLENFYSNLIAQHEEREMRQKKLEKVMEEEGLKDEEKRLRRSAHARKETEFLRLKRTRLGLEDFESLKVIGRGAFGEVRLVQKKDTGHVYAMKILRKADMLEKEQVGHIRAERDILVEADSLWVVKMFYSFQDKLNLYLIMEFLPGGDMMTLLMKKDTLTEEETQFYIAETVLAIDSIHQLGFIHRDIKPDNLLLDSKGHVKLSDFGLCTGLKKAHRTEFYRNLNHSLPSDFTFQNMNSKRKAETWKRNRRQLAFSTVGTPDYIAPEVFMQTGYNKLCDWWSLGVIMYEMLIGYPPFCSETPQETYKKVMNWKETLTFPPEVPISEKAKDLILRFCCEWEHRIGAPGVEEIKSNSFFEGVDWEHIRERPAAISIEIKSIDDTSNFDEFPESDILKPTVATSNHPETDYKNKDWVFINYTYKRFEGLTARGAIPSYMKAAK
How it was run: as §1

SYK = target: T10, SYK (Homo sapiens, UniProt P43405)
T10 construct: purchased Reaction Biology Corp
How it was run: as §1

CAMK2d = target: T11, CAMK2d (Homo sapiens, UniProt Q13557)
T11 construct: purchased Reaction Biology Corp
T11 sequence (Q13557 whole entry): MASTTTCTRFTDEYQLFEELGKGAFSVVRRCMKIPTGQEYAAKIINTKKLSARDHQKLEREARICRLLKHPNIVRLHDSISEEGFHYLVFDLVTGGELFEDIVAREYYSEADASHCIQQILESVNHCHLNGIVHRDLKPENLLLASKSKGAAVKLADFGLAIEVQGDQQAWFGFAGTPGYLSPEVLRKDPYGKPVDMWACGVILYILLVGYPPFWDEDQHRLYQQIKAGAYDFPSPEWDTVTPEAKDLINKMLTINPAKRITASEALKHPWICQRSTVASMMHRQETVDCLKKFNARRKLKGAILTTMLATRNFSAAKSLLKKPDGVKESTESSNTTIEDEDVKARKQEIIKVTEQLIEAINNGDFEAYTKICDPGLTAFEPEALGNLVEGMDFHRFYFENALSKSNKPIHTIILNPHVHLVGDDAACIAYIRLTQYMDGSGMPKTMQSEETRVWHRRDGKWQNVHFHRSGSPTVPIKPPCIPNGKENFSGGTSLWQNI
How it was run: as §1

GRK6 = target: T12, GRK6 (Homo sapiens, UniProt P43250)
T12 construct: purchased Reaction Biology Corp
T12 sequence (P43250 whole entry): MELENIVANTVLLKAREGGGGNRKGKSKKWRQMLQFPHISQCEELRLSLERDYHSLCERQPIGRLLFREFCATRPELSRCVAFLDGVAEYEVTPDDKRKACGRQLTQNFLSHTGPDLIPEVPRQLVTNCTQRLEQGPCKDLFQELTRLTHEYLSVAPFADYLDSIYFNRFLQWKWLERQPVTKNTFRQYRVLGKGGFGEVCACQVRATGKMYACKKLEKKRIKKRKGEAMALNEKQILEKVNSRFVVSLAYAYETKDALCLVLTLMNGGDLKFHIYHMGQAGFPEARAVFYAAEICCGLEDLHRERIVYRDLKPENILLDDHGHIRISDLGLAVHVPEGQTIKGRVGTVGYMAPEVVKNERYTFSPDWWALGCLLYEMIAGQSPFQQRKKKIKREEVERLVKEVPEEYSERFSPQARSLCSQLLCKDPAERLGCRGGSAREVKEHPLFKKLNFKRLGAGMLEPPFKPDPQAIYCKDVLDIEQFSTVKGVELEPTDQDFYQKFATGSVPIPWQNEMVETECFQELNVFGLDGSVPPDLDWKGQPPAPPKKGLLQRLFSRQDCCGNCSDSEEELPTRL
How it was run: as §1

[1] = read-out: % Enzyme Activity (relative to DMSO controls) AVG
[2] = read-out: % Enzyme Activity (relative to DMSO controls) Data 1
[3] = read-out: % Enzyme Activity (relative to DMSO controls) Data 2

CC(C)(C)C(=O)N1N=CC[C@H]1c1ccccc1 [GSK′963]
remaining activity at 10 µM (TXK; [1]): 96.3% | remaining activity at 10 µM (TXK; [2]): 95.7% | remaining activity at 10 µM (TXK; [3]): 96.8% | remaining activity at 10 µM (CAMK4; [1]): 96.7% | remaining activity at 10 µM (CAMK4; [2]): 95.5% | remaining activity at 10 µM (CAMK4; [3]): 97.9% | remaining activity at 10 µM (COT1/MAP3K8; [1]): 87.1% | remaining activity at 10 µM (COT1/MAP3K8; [2]): 86.6% | remaining activity at 10 µM (COT1/MAP3K8; [3]): 87.5% | remaining activity at 10 µM (MKK4; [1]): 105% | remaining activity at 10 µM (MKK4; [2]): 105% | remaining activity at 10 µM (MKK4; [3]): 105% | remaining activity at 10 µM (LOK/STK10; [1]): 94% | remaining activity at 10 µM (LOK/STK10; [2]): 93.1% | remaining activity at 10 µM (LOK/STK10; [3]): 95% | remaining activity at 10 µM (ERK5/MAPK7; [1]): 97.8% | remaining activity at 10 µM (ERK5/MAPK7; [2]): 95.5% | remaining activity at 10 µM (ERK5/MAPK7; [3]): 100% | remaining activity at 10 µM (TRKC; [1]): 99.2% | remaining activity at 10 µM (TRKC; [2]): 100% | remaining activity at 10 µM (TRKC; [3]): 98% | remaining activity at 10 µM (STK32B/YANK2; [1]): 98.5% | remaining activity at 10 µM (STK32B/YANK2; [2]): 98.6% | remaining activity at 10 µM (STK32B/YANK2; [3]): 98.4% | remaining activity at 10 µM (STK38/NDR1; [1]): 102% | remaining activity at 10 µM (STK38/NDR1; [2]): 100% | remaining activity at 10 µM (STK38/NDR1; [3]): 104% | remaining activity at 10 µM (SYK; [1]): 102% | remaining activity at 10 µM (SYK; [2]): 106% | remaining activity at 10 µM (SYK; [3]): 97.6% | remaining activity at 10 µM (CAMK2d; [1]): 108% | remaining activity at 10 µM (CAMK2d; [2]): 109% | remaining activity at 10 µM (CAMK2d; [3]): 108% | remaining activity at 10 µM (GRK6; [1]): 104% | remaining activity at 10 µM (GRK6; [2]): 104% | remaining activity at 10 µM (GRK6; [3]): 103%
